{
  "source": "paper PMC8129133",
  "about": "“Polymer-free corticosteroid dimer implants for controlled and sustained drug delivery” (Nature Communications, 2021)",
  "key": {"[1]": {"assay": "Dissolution of intravitreal implants in the rabbit eye (IR imaging of implant diameter, model fit)", "assay_type": "in vivo", "details": "for local surface dissolution rate constant / Implant Diameter (%): intravitreal; for local surface dissolution rate constant / Diameter of the drug delivery device / Diameter of drug delivery device: rabbit eye; for Implant Diameter (%): Fig 8b, 30 G × 6 mm implant, rabbit; for Diameter of the drug delivery device: script for Supp Fig 11a (30 G implant); for Diameter of drug delivery device: script for Supp Fig 11b, 32G × 6mm", "description": "Sample preparation. All implants were formed by melt extrusion of Dex-TEG-Dex, followed by cutting of implants to desired length. Samples were loaded into appropriate sized needles (27 G for 27 G implant, 30 G for 30 G, and 32 G implants), packaged, and sterilized by ethylene oxide gas.\nIR imaging. Wide-angle infrared (IR) imaging was performed at baseline, and monthly thereafter for implant imaging and eye health assessment. The imaging was performed using a Heidelberg Spectralis® imaging platform and IR images were analyzed using image analysis software (Image J v.1.8.0) to measure the diameter change of the implants. Three diameter measurements per image and a minimum of two images per implant were used to determine the diameter of the implant at each time point.\nMathematical modeling of drug release. Modeling of the Dex-TEG-Dex implants in the rabbit eye was performed using a compartmental model of drug release using MathWorks MATLAB R2020b. In this model, the drug delivery device is formed of solid drug dimer which undergoes surface erosion to release dimer into an intermediate domain. In the intermediate domain, dimer undergoes degradation to free drug and mono (linker-drug), which subsequently degrades to free linker and free drug. These components undergo transport to the target domain and are then cleared.\nThis model employs several simplifying assumptions. (1) The mechanism of surface dissolution is local (the same for each part of the surface independent of its location on the surface of the implant), in a manner dependent on the properties of the implant’s physiological location (e.g., dimer saturation). (2) Rate constants of processes are time independent, and the dissolution rates only depend on the corresponding changes in the shape of the delivery devices and properties of their environment. (3) Dimer degradation in the domain of interest occurs on a comparatively fast time scale such that the saturation concentration of dimer is not reached.\nA differential equation for the radius, R(t), of a cylindrical drug delivery device described by the compartmental model and derived using Noyes–Whitney equation[74],[75] can be written as (1):1 dR/dt=−DμY/ρh⋅y^*=−b, where D is a diffusion coefficient, µY is the molecular mass of the dimer, ρ is the density of the drug delivery device material, h is the thickness of the concentration gradient layer near the surface, y* is the saturation concentration of the dimer and b is the local surface dissolution rate.\nThe initial radius, R, of the cylindrical device is known: R0=R0 . Integrating Eq. (1) with this initial condition, gives Eq. (2):2 Rt=R0−b⋅t\nEquation (2) was fit to available data (time-dependent measurements of implant diameter) to estimate the local surface dissolution rate constant b for the 30 G × 6 mm and 32 G × 6 mm Dex-TEG-Dex intravitreal implants."}, "[2]": {"details": "rabbit, in vivo", "method": "Analysis of samples was conducted using a SCIEX API 5000 mass spectrometer (Applied Biosystems/MDS Sciex), Shimadzu LC-20ADXR HPLC pumps, Shimadzu SCL-10A controller, and HTS-PAL autoinjector (CTC Analytics). Chromatography was performed using a Waters X-Bridge C-18 (3.5 µm; 100 × 2.1 mm) column equipped with a Phenomenex KrudKatcher ULTRA HPLC In-Line Filter (Part AF0-8497). The column was held at a temperature of 40 °C, while the autosampler compartment was maintained at 4 °C. Mobile phases consisted of: (A) 95:5 H2O:MeOH with 2 mM Ammonium Acetate (NH4OAc) and (B) 85:10:5 MeOH:H2O:MeCN with 2 mM NH4OAc. A gradient elution profile was employed, following the trend of: (0 min 30% B), (0.50 min 30% B), (2.50 min 65% B), (2.51 min 100% B), (4.50 min 100% B), (4.51 min 30% B), (6.50 min 30% B). Flow was constant at 0.6 mL min^-1 with an injection volume of 10 µL. For MS parameters, the system was operated in positive ion mode with a TurboIonSpray probe monitoring transitions (±0.2 AMU) of m/z 393.2 → 373.2 for Dex and 397.3 → 377.2 for the Dex-d4 deuterated internal standard. Analyst Version 1.4.2 (Applied Biosystems-MDS Sciex) was used for instrument control, data acquisition, and peak integrations, while calculations including peak area ratios, standard curve regressions, sample concentration values, and descriptive statistics were performed with the assistance of the ALIS2004 validated LIMS.\nDex and internal standard (Dex-d4) were extracted from vitreous humor on ice using protein precipitation. Samples were initially centrifuged at approximately 1500 rcf for 5 min to remove any interfering particulates. Stepwise, the protocol for extraction from vitreous humor was to (1) pipette 50 µL of vitreous humor into an extraction tube; (2) add 13 µL H2O and vortex to mix; (3) add 25 µL internal standard spiking solution (100 ng/mL Dex-d4 in a 1:1 solvent of MeOH:H2O); (4) add 25 µL of make-up reagent (1:1 mixture of MeOH:H2O); (5) vortex mix for 5-10 s at a speed setting of 4 or 5; (6) centrifuge at ~60 rcf for 2 min; (7) add 300 µL of 9:1 MeOH:5 mM NH4OAc at pH 7 to precipitate proteins; (8) cap and vortex mix at full speed for 2 min; (9) Centrifuge at approximately 2700 rcf for 5 min; (10) transfer 300 µL of supernatant to a separate tube; (11) vortex the collected supernatant for 30 s at a low to moderate speed; (12) centrifuge at ~1500 rcf for 5 min; (13) store prepared extract at 4 °C until analysis by LC-MS/MS.\nPharmacokinetics. […] Animals were anesthetized with ketamine (up to ~50 mg/kg) and xylazine (up to ~10 mg/kg). Eyes were surgically prepared before intravitreal procedures with 5% betadine and topical anesthetic eye drops (proparacaine hydrochloride, 0.5%). Prior to test article administration, pupils were dilated with topical application of one drop each of 10% phenylephrine and 1% tropicamide on each cornea.\nImplants (30 G × 6 mm Dex-TEG-Dex extruded rods, Ozurdex®) were injected (30 G needle for Dex-TEG-Dex, 22 G needle for Ozurdex®) intravitreally into the eyes of New Zealand White rabbits (female, 1.5–2.5 kg) with terminal timepoints of 1 and 2 weeks and 1, 2, 3, 6, 9, 12, and 14 months. Ocular tissues and plasma were collected at each timepoint and analyzed for Dex by LC/MS/MS. Whole globe eyes were collected into centrifuge tubes and remained frozen for a minimum of 24 h before dissection and tissue collection. During dissection, vitreous humor containing any remaining test article was collected frozen into pre-weighed centrifuge tubes and stored at −80 °C until further processing."}, "[3]": {"assay": "Maximum soluble concentration in culture medium (HPLC)", "assay_type": "physicochemical", "details": "plasma or biological fluid, kinetic from ethanol stock, fibroblast growth medium, 1% ethanol, sterile filtered", "description": "Human dermal fibroblasts were chosen for general cytotoxicity assessment as they are commonly employed in standard cytotoxicity testing outlined in ISO10993 guidelines. […] The resulting solution was sterile filtered (Pall) to remove any non-soluble components and the concentration of Dex-TEG-Dex was confirmed by HPLC (6.7 µg/ml). The […] control was regular culture medium with 1% ethanol, while the negative control was culture medium containing 5% DMSO. Following 24 h exposure to the different test groups, a WST-1 assay was performed. Briefly, WST-1 reagent (Roche) was mixed with growth medium at a 1:10 dilution, added to test groups, and incubated at 37 °C and 5% CO2 for 1 h. Supernatant was transferred to a new well and absorbance was measured at 450 nm. After 24 h exposure to test groups, samples were also visualized following Diff-Quik staining following the manufacturer’s recommended protocol (Siemens). Samples were imaged with a Leica DMIL microscope equipped with a Canon PowerShot S70 camera with ZoomBrowser Ex 5.0 software (Canon, version 5.0.0.142)."}, "[4]": {"assay": "In vitro half-life / degradation of solubilized Dex-TEG-Dex in FBS", "assay_type": "in vitro ADME", "description": "Dex-TEG-Dex was dissolved in acetone at 10 mg/ml and added to 100% FBS to obtain a final concentration of 10 µg/ml and incubated at 37 °C with constant agitation at 115 rpm (VWR). At experimental timepoints of t = 0, 0.5, 1, 2, 3, 4, 5, 6, and 24 h, sample was removed and protein was precipitated with acetonitrile. Samples were vortexed and centrifuged to separate extracted drug from the precipitated protein. The supernatant was then analyzed by HPLC as described above."}},
  "note": "Values joined by “and” are separate entries in the source; they are usually repeats but may differ in a detail not shown here. Equal entries are not always repeated.",
  "data": [
    {"smiles": "C[C@@H]1C[C@H]2[C@@H]3CCC4=CC(=O)C=C[C@]4(C)[C@@]3(F)[C@@H](O)C[C@]2(C)[C@@]1(O)C(=O)COC(=O)OCCOCCOCCOC(=O)OCC(=O)[C@@]1(O)[C@H](C)C[C@H]2[C@@H]3CCC4=CC(=O)C=C[C@]4(C)[C@@]3(F)[C@@H](O)C[C@@]21C", "note": "[Dex-TEG-Dex]", "values": [
      {"measurement": "local surface dissolution rate constant", "setting": "[1]; 30 G implant", "value": "0.1510 ± 0.0084", "unit": "µm/day"},
      {"measurement": "local surface dissolution rate constant", "setting": "[1]; 32 G implant", "value": "0.1522 ± 0.0140", "unit": "µm/day"},
      {"measurement": "Implant Diameter (%)", "setting": "[1]; 0 days", "value": "107.57% and 103.15% and 92.13% and 99.18% and 92.81% and 97.05% and 100.23% and 107.88%"},
      {"measurement": "Implant Diameter (%)", "setting": "[1]; 35 days", "value": "87.55% and 86.70% and 88.00% and 92.68% and 90.49% and 81.42% and 103.34% and 91.71%"},
      {"measurement": "Implant Diameter (%)", "setting": "[1]; 76 days", "value": "82.56% and 74.07% and 79.78% and 98.06% and 80.37% and 72.75% and 93.94%"},
      {"measurement": "Implant Diameter (%)", "setting": "[1]; 128 days", "value": "76.90% and 66.50% and 66.32% and 64.24% and 79.47% and 77.51% and 67.41% and 82.08%"},
      {"measurement": "Implant Diameter (%)", "setting": "[1]; 210 days", "value": "55.93% and 41.19% and 50.86% and 49.89% and 69.49% and 44.35% and 52.23% and 60.96%"},
      {"measurement": "Diameter of the drug delivery device", "setting": "[1]; day 0", "value": "115.44 µm and 122.56 µm and 115.98 µm and 121.28 µm and 125.25 µm and 134.81 µm and 135.77 µm and 128.91 µm"},
      {"measurement": "Diameter of the drug delivery device", "setting": "[1]; day 35", "value": "109.97 µm and 115.81 µm and 110.60 µm and 101.74 µm and 129.14 µm and 114.61 µm and 109.41 µm and 108.35 µm"},
      {"measurement": "Diameter of the drug delivery device", "setting": "[1]; day 76", "value": "92.56 µm and 99.70 µm and 122.54 µm and 101.44 µm and 90.91 µm and 117.39 µm and 94.21 µm and 112.13 µm"},
      {"measurement": "Diameter of the drug delivery device", "setting": "[1]; day 128", "value": "81.93 µm and 80.28 µm and 99.31 µm and 96.86 µm and 84.21 µm and 102.57 µm and 96.10 µm and 83.10 µm"},
      {"measurement": "Diameter of the drug delivery device", "setting": "[1]; day 185", "value": "71.40 µm and 91.90 µm and 62.52 µm and 53.64 µm and 76.76 µm and 78.82 µm and 73.54 µm"},
      {"measurement": "Diameter of the drug delivery device", "setting": "[1]; day 210", "value": "63.55 µm and 62.35 µm and 86.62 µm and 55.42 µm and 65.27 µm and 76.18 µm and 69.90 µm and 51.48 µm"},
      {"measurement": "Diameter of drug delivery device", "setting": "[1]; day 0", "value": "71.94 µm and 80.30 µm and 83.05 µm and 99.99 µm and 86.79 µm and 101.43 µm and 116.40 µm and 84.89 µm"},
      {"measurement": "Diameter of drug delivery device", "setting": "[1]; day 35", "value": "90.18 µm and 66.10 µm and 74.39 µm and 80.46 µm and 84.98 µm and 58.84 µm and 82.44 µm and 84.41 µm"},
      {"measurement": "Diameter of drug delivery device", "setting": "[1]; day 76", "value": "77.98 µm and 58.21 µm and 73.62 µm and 66.12 µm and 67.29 µm and 54.07 µm and 65.40 µm and 64.89 µm"},
      {"measurement": "Diameter of drug delivery device", "setting": "[1]; day 128", "value": "43.88 µm and 50.55 µm and 44.52 µm and 60.85 µm and 49.60 µm and 50.03 µm and 42.29 µm and 71.40 µm"},
      {"measurement": "time at which free Dex fell below limits of detection", "setting": "[2]; female, New Zealand White", "value": 14, "unit": "months"},
      {"measurement": "levels of dexamethasone in the aqueous humor", "setting": "[2]", "value": "below the limit of quantification for most samples"},
      {"measurement": "solubility", "setting": "[3]", "value": 6.7, "unit": "µg/mL"},
      {"measurement": "t1/2 of solubilized dimer with protease inhibitor", "setting": "[4]; FBS + Pefabloc 1 mg/ml", "value": "17.5 ± 4.0", "unit": "h"},
      {"measurement": "t1/2 of solubilized dimer", "setting": "[4]; FBS, 37 °C", "value": "1.6 ± 0.3", "unit": "h"},
      {"measurement": "Dex-TEG-Dex", "setting": "[4]; Fig 4f/4g, 100% FBS, 0 h", "value": "8904.60 ng/mL and 12808.33 ng/mL and 10692.90 ng/mL"},
      {"measurement": "Dex-TEG-Dex", "setting": "[4]; Fig 4f/4g, 100% FBS, 0.5 h", "value": "7215.95 ng/mL and 9829.58 ng/mL and 8828.65 ng/mL"},
      {"measurement": "Dex-TEG-Dex", "setting": "[4]; Fig 4f/4g, 100% FBS, 1 h", "value": "5359.02 ng/mL and 7447.63 ng/mL and 6811.81 ng/mL"},
      {"measurement": "Dex-TEG-Dex", "setting": "[4]; Fig 4f/4g, 100% FBS, 2 h", "value": "2692.08 ng/mL and 4406.52 ng/mL and 3872.43 ng/mL"},
      {"measurement": "Dex-TEG-Dex", "setting": "[4]; Fig 4f/4g, 100% FBS, 3 h", "value": "1327.43 ng/mL and 2230.11 ng/mL and 1843.05 ng/mL"},
      {"measurement": "Dex-TEG-Dex", "setting": "[4]; Fig 4f/4g, 100% FBS, 4 h", "value": "658.17 ng/mL and 1181.11 ng/mL and 1053.60 ng/mL"},
      {"measurement": "Dex-TEG-Dex", "setting": "[4]; Fig 4f, 100% FBS, 24 h", "value": 0.00, "unit": "ng/mL"},
      {"measurement": "Dex-TEG-Dex", "setting": "[4]; Fig 4g, 100% FBS + Pefabloc, 0 h", "value": "9696.84 ng/mL and 12099.70 ng/mL and 11672.92 ng/mL"},
      {"measurement": "Dex-TEG-Dex", "setting": "[4]; Fig 4g, 100% FBS + Pefabloc, 0.5 h", "value": "9639.71 ng/mL and 11685.46 ng/mL and 12342.53 ng/mL"},
      {"measurement": "Dex-TEG-Dex", "setting": "[4]; Fig 4g, 100% FBS + Pefabloc, 1 h", "value": "9646.33 ng/mL and 10767.80 ng/mL and 11272.62 ng/mL"},
      {"measurement": "Dex-TEG-Dex", "setting": "[4]; Fig 4g, 100% FBS + Pefabloc, 2 h", "value": "9053.36 ng/mL and 10983.11 ng/mL and 10167.52 ng/mL"},
      {"measurement": "Dex-TEG-Dex", "setting": "[4]; Fig 4g, 100% FBS + Pefabloc, 3 h", "value": "9138.02 ng/mL and 9847.00 ng/mL and 8269.83 ng/mL"},
      {"measurement": "Dex-TEG-Dex", "setting": "[4]; Fig 4g, 100% FBS + Pefabloc, 4 h", "value": "8469.46 ng/mL and 9930.96 ng/mL and 8280.63 ng/mL"},
      {"measurement": "Dex-TEG-Dex", "setting": "[4]; Fig 4g, 100% FBS + Pefabloc, 5 h", "value": "8230.46 ng/mL and 9376.67 ng/mL and 8546.80 ng/mL"},
      {"measurement": "Dex-TEG-Dex", "setting": "[4]; Fig 4g, 100% FBS + Pefabloc, 6 h", "value": "7196.79 ng/mL and 9318.49 ng/mL and 8262.17 ng/mL"}
    ]}
  ]
}
